Experiments:
[1] = target: human C5a receptor (C5aR) (Homo sapiens (Human), UniProt P21730); assay: Inhibition of C5a-C5aR binding (biotinylated human C5a, U937/C5aR cells, FACS)
Outline: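 U937 cells stably expressing human C5aR, 3×10^6 cells/ml in PBS+0.1% BSA, were co-incubated with compound and biotinylated human C5a (30 nM, working solution) on ice for 120 min. Bound ligand was stained with FITC-streptavidin for 30 min on ice and read by flow cytometry.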

C5aR [2] = target: T1, C5aR (Homo sapiens (Human), UniProt P21730); assay: Inhibition of C5a-C5aR binding determined by cell migration assay (U937/C5aR cells); format: cell-based; settings: U937/C5aR cell migration towards human C5a, 180 min
Outline: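 Transwell migration through 3.0 µm pores: U937/C5aR cells in HBSS + 1% FBS were premixed with compound, with human C5a plus compound in the bottom well. After 30 min preincubation, cells migrated 180 min at 37 °C. Migrated cells were quantified by CellTiter-Glo luminescence.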

[3] = system: human C5a (hC5a) induced neutropenia; assay: C5a induced neutropenia in a cynomolgus model; format: in vivo; settings: cynomolgus monkey, pre-dosed 4 hours before hC5a, compared to vehicle
Experimental: (§1) To study the efficacy of compounds in a non-human primate model, human C5a (hC5a) induced neutropenia is studied in a cynomolgus model. Intravenous injection of hC5a induced upregulation of adhesion molecules on blood vessel walls, leading to decreased neutrophils in the blood stream and attached to the vascular walls. Monkeys were pre-dosed with vehicle or specific compound, and 4 hours later, hC5a (10 g/kg, ACROBiosystems) was administrated and 1 minute later neutrophils are quantified in peripheral blood.
The percent change in the number of neutrophils in the blood collected after C5a injection (241 min) was calculated relative to the sample collected prior to C5a injection (239 min). The plasma concentration of each compound was calculated as the average concentration prior to C5a injection of 2 individual monkeys.

C5aR [4] = target: T1, C5aR; assay: Calcium mobilization (U937/C5aR or HEK293/C5aR cells, FLIPR); format: cell-based; settings: agonist human C5a at EC80, FLIPR
Outline: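 U937 or HEK293 cells expressing human C5aR, plated overnight, then preincubated 60 min with compound. After Fluo-4 Direct dye loading (50 min at 37 °C, 10 min at room temperature), intracellular calcium rise on FLIPR was triggered by human C5a agonist at EC80.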

[5] = system: human C5a induced neutropenia; assay: C5a induced neutropenia in human C5aR knock-in mice model; format: in vivo; settings: 0.3 mg/kg and 3 mg/kg, pre-dosed 2 hours before hC5a
Experimental: as §1, with “an animal” for “a non-human primate”, “C5aR knock-in mice were created by replacing the coding region of mouse C5aR with human C5aR coding sequence.” for “C5a (hC5a) induced neutropenia is studied in a cynomolgus model.”, “Human C5aR knock-in mice” for “Monkeys”, “2” for “4”, “human C5a ([…]” for “hC5a (10”
The percent change in the number of neutrophils in the blood collected after C5a injection (121 min), relative to the sample collected prior to C5a injection (119 min). The plasma concentration of each compound is the average concentration prior to C5a injection of 3 individual mice.

[6] = system: C5a induced CD11b upregulation on neutrophil; assay: Neutrophil CD11b FACS assay, human C5aR knock-in mice whole blood after oral pre-dosing; format: in vivo; settings: oral pre-dosing 0.3 mg/kg and 3 mg/kg
Experimental: (§2) Peripheral blood samples were collected from Cynomolgus monkey/huC5aR knock-in mice at indicated timepoints. 100 μl aliquots were mixed with a range of C5a concentrations and incubated at 37° C. for 30 min. Blood was cooled down on wet ice for at least 3 min, anti-CD11b monoclonal antibody (BD Biosciences) was added and incubated at 4° C. for 60 min. Red blood cells were lysed by adding erythrocyte lysis buffer (Solarbio) and incubated on ice for 10 min, white blood cells were washed by pre-cold PBS twice and suspended by 2% PFA/PBS buffer. Neutrophils were classified with flow cytometry by their forward/side-scatter properties and mean fluorescence intensity of anti-CD11b staining on cells was read by FACS (Beckman).
(§3) Whole blood was collected at indicated timepoints (2 hours or 12 hours after dosing compound) and further stimulated with human C5a in vitro. CD11b FACS antibody was added and incubate for 60 min at 4 C before red blood cells were lysed. The percent of CD11b signal was calculated by the formula %=(MFI[C5a conc.]-MFI[C5a=0])/(MFI[max]-MFI[C5a=0])×100%. Each data point was the average SD of 3 individual mice.
as §3, with “2 hrs” for “indicated timepoints (2 hours or 12 hours”, “compound” for “compound)”, “average” for “average SD”, “2” for “3”
as §3, with “2 hrs” for “indicated timepoints (2 hours or 12 hours”, “compound” for “compound)”, “average±SD” for “average SD”, “2” for “3”

[7] = system: C5a induced CD11b upregulation on granulocytes; assay: Neutrophil CD11b FACS assay, cyno monkey whole blood after oral pre-dosing; format: in vivo; settings: oral pre-dosing at 10 mg/kg
Experimental: as §2
The percent of CD11b signal was calculated by the formula %=(MFI[C5a conc.]-MFI[C5a=0])/(MFI[max]-MFI[C5a=0])×100%. Each data point was the average of 2 individual monkeys. The plasma concentration of each compound is the average concentration prior to C5a injection of 2 individual monkeys.

T1 sequence (P21730 whole entry): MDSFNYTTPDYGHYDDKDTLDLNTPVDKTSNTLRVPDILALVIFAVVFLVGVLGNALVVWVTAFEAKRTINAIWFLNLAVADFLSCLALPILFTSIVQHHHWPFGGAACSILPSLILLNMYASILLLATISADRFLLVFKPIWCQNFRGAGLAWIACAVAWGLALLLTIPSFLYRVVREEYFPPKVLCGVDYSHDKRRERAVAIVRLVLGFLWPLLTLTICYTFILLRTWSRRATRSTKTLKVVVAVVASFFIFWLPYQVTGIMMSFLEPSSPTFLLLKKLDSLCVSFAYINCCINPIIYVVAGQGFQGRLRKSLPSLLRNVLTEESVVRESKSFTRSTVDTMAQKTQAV
Chain of human C5a receptor (C5aR) (P21730 whole entry): as above

- IC50 [1]: < 0.05 µM
- IC50 (C5aR [2]): < 0.05 µM
- IC50 (C5aR [4]): 0.5 to 2 µM
- EC50 at 10 mg/kg ([7]; Macaca fascicularis, Neutrophil, read-out: EC50 (C5a induced CD11b upregulation on granulocytes ex-vivo)): 0.256 µM
SMILES: Cc1cccc(F)c1C(=O)N1[C@@H]2CCC[C@@H]2C[C@H](C(=O)Nc2ccc3c(cnn3C)c2)[C@@H]1c1ccc(NC2CCCC2)cc1 [Compound 49, (2R,3S,4aR,7aR)-2-(4-(cyclopentylamino)phenyl)-1-(2-fluoro-6-methylbenzoyl)-N-(1-methyl-1H-indazol-5-yl)octahydro-1H-cyclopenta[b]pyridine-3-carboxamide]
- rescue of neutropenia induced by human C5a [3]: effectively rescued the neutropenia
- rescue of neutropenia induced by human C5a [5]: effectively rescued the neutropenia
- CD11b upregulation on neutrophil ([6]; 2 hours after dosing): blocked
- CD11b upregulation on neutrophil ([6]; 2 hours and 12 hours post-dosing): blocked
- C5a induced CD11b upregulation on granulocytes ex-vivo [7]: blocked

— patent US20240043439A1, “COMPOUNDS AS C5AR INHIBITORS” (Kira Pharmaceuticals (Suzhou) Ltd., priority 2020, published 2024)
